In patent publication US5817652A, “Hypolipidaemic condensed 1,4-thiazepines” (Glaxo Wellcome Inc., priority 1993, dated 1998):
Structures can show the parent of a compound that is named as a salt.

Tested on: rat distal ileal brush border membrane vesicles
Assay: In vitro inhibition of bile acid uptake (sodium-dependent 3H taurocholate uptake)
Type: biochemical
Conditions: active (sodium-dependent) 3H taurocholate uptake, 30 seconds at 24° C., pH 7.4
Method: In vitro inhibition of bile acid uptake
Freshly prepared rat distal ileal brush border membrane vesicles (about […] vesicle protein) were incubated for 30 seconds at 24° C. in an incubation mixture comprising […] ^3 H taurocholate, 100 mM NaCl (or KCl) and 80 mM mannitol in 20 mM Herpes Tris pH 7.4. Each test compound was dissolved in ethanol (or water) and then diluted with incubation mixture to an ethanol concentration of not more than 1% v/v. The incubation was terminated by rapid dilution and filtration and the filter washed with an ice-cold isotonic sodium-free buffer.
The uptake of ^3 H taurocholate was measured by the radioactivity remaining on the filter and converted to pmoles/mg vesicle protein. The active, ie sodium-dependent, uptake was obtained by subtracting the passive uptake measured in 100 mM KCl from the total uptake measured in 100 mM NaCl. The active uptake for each test compound was compared with a control active uptake and the results expressed as % inhibition of bile acid uptake.

Compound | % inhibition of bile acid uptake (0.3 μM compound) | % inhibition of bile acid uptake (1 μM compound) | % inhibition of bile acid uptake (3 μM compound) | % inhibition of bile acid uptake (10 μM compound)
CCC(=O)CC1(CC)CS(=O)(=O)c2ccccc2C(c2ccccc2)N1 (mixture of isomers) [Example 4, (±)-trans-1-(3-ethyl-2,3,4,5-tetrahydro-5-phenyl-1,4-benzothiazepin-3-yl)-2-butanone S,S-dioxide] | 28% | 54% | 77% | 90%
CCC(=O)CC1(CC)CS(=O)(=O)c2cc(OC)ccc2C(c2ccccc2)N1 (mixture of isomers) [Example 5, (±)-trans-1-(3-ethyl-2,3,4,5-tetrahydro-8-methoxy-5-phenyl-1,4-benzothiazepin-3-yl)-2-butanone S,S-dioxide hydrochloride 1,1 hydrate] | 60% | 83% | 94% | 98%
CCC1(/C=C/C(C)=O)CS(=O)(=O)c2ccccc2C(c2ccccc2)N1 (mixture of isomers) [Example 10, (±)-trans-(E)-4-(3-ethyl-2,3,4,5-tetrahydro-5-phenyl-1,4-benzothiazepin-3-yl)-3-buten-2-one 1,1-dioxide] |  |  |  | 69%
CCC(=O)CC1(CC)CS(=O)(=O)c2ccc(OC)cc2C(c2ccccc2)N1 (mixture of isomers) [Example 51, (±)-Trans-1-(3-Ethyl-2,3,4,5-tetrahydro-7-methoxy-5-phenyl-1,4-benzothiazepin-3-yl)-2-butanone S,S-dioxide hydrochloride] | 66% | 91% | 100% | 100%
CCOCCC1(CC)CS(=O)(=O)c2ccccc2C(c2ccccc2)N1 (racemic) [Example 7, (±)-trans-3-(ethoxyethyl)-3-ethyl-2,3,4,5-tetrahydro-5-phenyl-1,4-benzothiazepine 1,1-dioxide hydrochloride hemihydrate] |  |  |  | 53%
COc1ccc2c(c1)S(=O)(=O)CC1(CCCCC1)NC2c1ccccc1 (racemic) [Example 11, (±)-2,3,4,5-tetrahydro-8-methoxy-5-phenylspiro(1,4-benzothiazepine-3,1-cyclohexane) 1,1-dioxide] | 15% | 33% | 36% | 64%
O=S1(=O)CC2(CCCCC2)NC(c2ccccc2)c2ccccc21 (racemic) [Example 20, (±)-2,3,4,5-Tetrahydro-5-phenylspiro(1,4-benzothiazepine-3,1'-cyclohexane) 1,1-dioxide] |  |  |  | 27%
